Key:
[1] = molecular target: T1, CSK (Homo sapiens, UniProt P41240); test: Human CSK enzymatic assay (AlphaScreen, Poly (Glu4-Tyr) substrate); format: biochemical; conditions: 100 uM ATP; read-out: CSK IC50 (μM) COFACTOR: 100 uM ATP
T1 construct: purchased Thermo Fisher
Procedure: This assay measures the ability of CSK to phosphorylate a biotinylated peptide containing multiple tyrosine residues in vitro. The CSK enzyme was purchased from Thermo Fisher. The biotinylated Poly (Glu4-Tyr) peptide substrate was purchased from Sigma-Aldrich. The CSK enzyme assay was performed using 0.75 ng CSK enzyme and 30 nM Poly (Glu4-Tyr) substrate in the presence of 25 mM Hepes pH 7.5, 5 mM Mg Acetate, 0.1% NP-40, 1 mM DTT, 0.01% BSA, and 100 μM ATP. A 19 μL volume of the above reaction mixture was added to wells of 384-well AlphaPlate (PerkinElmer GA, USA) containing 1 μL of various concentrations of test compound or DMSO vehicle and incubated for 60 minutes at room temperature. 16 wells containing all the components of reaction mixture and 5% DMSO serve as high control. 16 wells containing all the components except ATP of reaction mixture and 5% DMSO served as low control. The enzymatic reaction was stopped by the addition of 5 μL stop/detection mixture containing 25 mM Hepes pH 7.5 100 mM EDTA, and 5 μg/mL streptavidin-coated AlphaScreen donor beads (PerkinElmer GA, USA) and incubated for 20 minutes. A 5 μL mixture containing 25 mM Hepes pH 7.5, 100 mM EDTA, and 5 μg/mL anti-phosphotyrosine antibody PY20-coated AlphaScreen acceptor beads (PerkinElmer GA, USA) was added and the plate was incubated for 1 hour at room temperature. The streptavidin donor beads bind to the biotin moiety on the biotinylated Poly (Glu4-Tyr) substrate and the PY20 antibody-coated acceptor beads bind to tyrosine residues on the substrate that have been directly phosphorylated by CSK. Upon excitation of these beads with laser light at 680 nm, singlet oxygen was produced. This singlet oxygen was rapidly quenched, unless the AlphaScreen PY20 acceptor beads are in close proximity, in which case a proximity signal can be measured at 580 nm. In the presence of catalytic activity, there was a very strong proximity signal. Selective CSK inhibitors affect a decrease in this proximity signal through a decrease in phosphorylation of the Poly (Glu4-Tyr) substrate. The percentage of inhibition at individual concentrations relative to high and low controls was calculated. The data were analyzed by using nonlinear regression to generate IC50 values. Human LCK enzymatic assay

[2] = test system: Jurkat/NFAT-RE cells; test: NFAT reporter assay (luciferase) in Jurkat/NFAT-RE cells; format: cell-based; conditions: Homo sapiens, 0.02 μg/mL anti-CD3 antibody OKT3, 3 hours, read-out: Jurkat EC50 (uM) Cell Assay: Reporter Cell Variant: NFAT response element
Description: To assess the ability of CSK inhibitors to activate LCK and stimulate signaling downstream of the T-cell receptor, an NFAT reporter assay was used for monitoring of LCK activation in cells through the activation of LCK-dependent signaling through a reporter assay. The Jurkat T-cell cell line was genetically engineered to express a luciferase reporter that is regulated by the NFAT-response element. (Clipstone, N. A., & Crabtree, G. R., Identification of calcineurin as a key signalling enzyme in T-lymphocyte activation, Nature, 357(6380), 695-697, 1992). Stimulation of the T-cell receptor with anti-CD3 antibody increases the expression of the luciferase reporter. To test the ability of CSK inhibitors to stimulate LCK and downstream T-cell signaling, the cells were stimulated with a suboptimal concentration of anti-CD3 ligand, to measure the ability of CSK inhibitors to increase luciferase expression.
This assay measures the signaling activity downstream of the T-cell receptor, specifically the ability of the NFAT transcription factor to be translocated to the nucleus and induce expression of a firefly luciferase gene. Jurkat/NFAT-RE cells stably expressing the NFAT reporter construct were purchased from BPS Bioscience. The assay was performed by plating 40,000 Jurkat/NFAT-RE cells in a 50 μL volume of serum-free growth media in a 96-well plate. Following an overnight incubation, the cells were treated with CSK inhibitors and 0.02 μg/mL anti-CD3 antibody OKT3 (BD Bioscience) for 3 hours at 37° C. High control wells were stimulated with DMSO and 5 μg/mL OKT3 to maximally stimulate the NFAT reporter, and low control wells were stimulated with DMSO and 0.02 μg/mL OKT3. Following the 3 hour incubation, the cells were assayed for viability using CellTiter-Fluor™ (Promega), and for luciferase expression using ONE-Glo™ (Promega). The ONE-Glo™ signal was normalized to the CellTiter-Fluor™ signal, and the percentage of NFAT activation relative to high and low controls was calculated. The data were analyzed by using nonlinear regression to generate EC50 values. Selective CSK inhibitors affect an increase in luciferase expression in the presence of low level stimulation of the T-cell receptor.

[3] = molecular target: T2, LCK (Homo sapiens, UniProt P06239); test: Human LCK enzymatic assay (AlphaScreen, Poly (Glu4-Tyr) substrate); format: biochemical; conditions: 100 uM ATP; read-out: LCK IC50 (uM) COFACTOR: 100 uM ATP
T2 construct: purchased ProQinase
Procedure: This assay measures the ability of LCK to phosphorylate a biotinylated peptide containing multiple tyrosine residues in vitro. The LCK enzyme was purchased from ProQinase. The biotinylated Poly (Glu4-Tyr) peptide substrate was purchased from Sigma-Aldrich. The LCK enzyme assay was performed using 1 ng LCK enzyme and 30 nM Poly (Glu4-Tyr) substrate in the presence of 25 mM Hepes pH 7.5, 10 mM MnCl2, 50 mM NaCl, 0.01% Tween-20, 0.5 mM DTT, 0.01% BSA, and 100 μM ATP. A 19 μL volume of the above reaction mixture was added to wells of 384-well AlphaPlate (PerkinElmer GA, USA) containing 1 μL of various concentrations of test compound or DMSO vehicle and incubated for 40 minutes at 25° C. 16 wells containing all the components of reaction mixture and 5% DMSO served as high control. 16 wells containing all the components except ATP of reaction mixture and 5% DMSO served as low control. The enzymatic reaction was stopped by the addition of 5 μL stop/detection mixture containing 25 mM Hepes pH 7.5 100 mM EDTA, and 10 μg/mL streptavidin-coated AlphaScreen donor beads (PerkinElmer GA, USA) and incubated for 20 minutes. A 5 μL mixture containing 25 mM Hepes pH 7.5, 100 mM EDTA, and 10 μg/mL anti-phosphotyrosine antibody PY20-coated AlphaScreen acceptor beads (PerkinElmer GA, USA) was added and the plate was incubated for 1 hour at room temperature. The streptavidin donor beads bind to the biotin moiety on the biotinylated Poly (Glu4-Tyr) substrate and the PY20 antibody-coated acceptor beads bind to tyrosine residues on the substrate that have been directly phosphorylated by LCK. Upon excitation of these beads with laser light at 680 nm, singlet oxygen was produced. This singlet oxygen was rapidly quenched, unless the AlphaScreen PY20 acceptor beads are in close proximity, in which case a proximity signal can be measured at 580 nm. In the presence of catalytic activity, there was a very strong proximity signal. Selective LCK inhibitors affect a decrease in this proximity signal through a decrease in phosphorylation of the Poly (Glu4-Tyr) substrate. The percentage of inhibition at individual concentrations relative to high and low controls was calculated. The data were analyzed by using nonlinear regression to generate IC50 values.

T2 sequence (P06239 whole entry): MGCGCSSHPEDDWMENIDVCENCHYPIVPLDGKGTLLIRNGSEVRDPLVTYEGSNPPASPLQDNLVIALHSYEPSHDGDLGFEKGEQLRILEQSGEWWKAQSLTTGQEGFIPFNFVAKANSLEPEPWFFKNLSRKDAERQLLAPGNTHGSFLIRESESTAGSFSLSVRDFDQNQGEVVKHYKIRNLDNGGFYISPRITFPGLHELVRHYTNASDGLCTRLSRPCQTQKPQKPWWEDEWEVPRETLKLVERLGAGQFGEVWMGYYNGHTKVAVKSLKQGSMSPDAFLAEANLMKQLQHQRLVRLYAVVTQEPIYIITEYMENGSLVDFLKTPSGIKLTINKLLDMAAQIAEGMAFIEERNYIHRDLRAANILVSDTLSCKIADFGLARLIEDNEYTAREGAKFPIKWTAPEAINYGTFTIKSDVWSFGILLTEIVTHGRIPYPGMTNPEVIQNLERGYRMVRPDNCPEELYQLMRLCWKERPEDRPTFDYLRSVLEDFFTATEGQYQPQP

Compound	IC50 [1]	EC50 [2]	IC50 [3]
O=c1c(-c2c(F)ccc(NS(=O)(=O)c3cc4scnc4cc3F)c2F)cc2cnc(NCCO)cc2n1C1CC(F)(F)C1 [P-0015, N-(3-(1-(3,3-difluorocyclobutyl)-7-((2-hydroxyethyl)amino)-2-oxo-1,2-dihydro-1,6-naphthyridin-3-yl)-2,4-difluorophenyl)-5-fluorobenzo[d]thiazole-6-sulfonamide]	0.5 to 5 µM	0.5 to 5 µM	5 to 100 µM
CC1(n2c(=O)c(-c3c(F)ccc(NS(=O)(=O)c4cc5scnc5cc4F)c3F)cc3cnc(N)cc32)CC1 [P-0006, N-(3-(7-amino-1-(1-methylcyclopropyl)-2-oxo-1,2-dihydro-1,6-naphthyridin-3-yl)-2,4-difluorophenyl)-5-fluorobenzo[d]thiazole-6-sulfonamide]	0.001 to 0.5 µM	0.5 to 5 µM	5 to 100 µM
Nc1cc2c(cn1)cc(-c1c(F)ccc(NS(=O)(=O)c3cc4scnc4cc3F)c1F)c(=O)n2CC1CC(F)(F)C1 [P-0018, N-(3-(7-amino-1-((3,3-difluorocyclobutyl)methyl)-2-oxo-1,2-dihydro-1,6-naphthyridin-3-yl)-2,4-difluorophenyl)-5-fluorobenzo[d]thiazole-6-sulfonamide]	0.001 to 0.5 µM	0.001 to 0.5 µM	5 to 100 µM
Nc1cc2c(cn1)cc(-c1c(F)ccc(NS(=O)(=O)c3ccc4ncsc4c3F)c1F)c(=O)n2CC(F)(F)F [P-0022, N-(3-(7-amino-2-oxo-1-(2,2,2-trifluoroethyl)-1,2-dihydro-1,6-naphthyridin-3-yl)-2,4-difluorophenyl)-7-fluorobenzo[d]thiazole-6-sulfonamide]	0.001 to 0.5 µM	0.001 to 0.5 µM	0.5 to 5 µM
O=c1c(-c2c(F)ccc(NS(=O)(=O)c3cc4scnc4cc3F)c2F)cc2cnc(NCCO)cc2n1CC1CC1 [P-0010, N-(3-(1-(cyclopropylmethyl)-7-((2-hydroxyethyl)amino)-2-oxo-1,2-dihydro-1,6-naphthyridin-3-yl)-2,4-difluorophenyl)-5-fluorobenzo[d]thiazole-6-sulfonamide]	0.001 to 0.5 µM	0.5 to 5 µM	5 to 100 µM

Other lines, results leading:

IC50 [1]	EC50 [2]	IC50 [3]	Compound
0.001 to 0.5 µM	0.001 to 0.5 µM	0.5 to 5 µM	Nc1cc2c(cn1)cc(-c1c(F)ccc(NS(=O)(=O)c3ccc4ncsc4c3)c1F)c(=O)n2CC(F)F [P-0023, N-(3-(7-amino-1-(2,2-difluoroethyl)-2-oxo-1,2-dihydro-1,6-naphthyridin-3-yl)-2,4-difluorophenyl)benzo[d]thiazole-6-sulfonamide]
0.001 to 0.5 µM	0.001 to 0.5 µM	0.5 to 5 µM	Nc1cc2c(cn1)cc(-c1c(F)ccc(NS(=O)(=O)c3ccc4ncsc4c3F)c1F)c(=O)n2CC(F)F [P-0019, N-(3-(7-amino-1-(2,2-difluoroethyl)-2-oxo-1,2-dihydro-1,6-naphthyridin-3-yl)-2,4-difluorophenyl)-7-fluorobenzo[d]thiazole-6-sulfonamide]
0.001 to 0.5 µM	0.001 to 0.5 µM	0.5 to 5 µM	O=c1c(-c2c(F)ccc(NS(=O)(=O)c3cc4scnc4cc3F)c2F)cc2cnc(Nc3ccn(C(F)F)n3)cc2n1C1CC(F)(F)C1 [P-0013, N-(3-(1-(3,3-difluorocyclobutyl)-7-((1-(difluoromethyl)-1H-pyrazol-3-yl)amino)-2-oxo-1,2-dihydro-1,6-naphthyridin-3-yl)-2,4-difluorophenyl)-5-fluorobenzo[d]thiazole-6-sulfonamide]
0.001 to 0.5 µM	0.001 to 0.5 µM	5 to 100 µM	Nc1cc2c(cn1)cc(-c1c(F)ccc(NS(=O)(=O)c3cc4scnc4cc3F)c1F)c(=O)n2C1CC1 [P-0008, N-(3-(7-amino-1-cyclopropyl-2-oxo-1,2-dihydro-1,6-naphthyridin-3-yl)-2,4-difluorophenyl)-5-fluorobenzo[d]thiazole-6-sulfonamide]
